Test results reported in PMC6191125, “Peptidoglycan potentiates the membrane disrupting effect of the carboxyamidated form of DMS-DA6, a Gram-positive selective antimicrobial peptide isolated from Pachymedusa dacnicolor skin” (PLoS ONE, 2018).
≈ marks a conversion by molar mass, not a printed value. Residues, ends and D or L forms follow the SMILES beside them.

Columns and labels:
E. faecium BM 4147 = assay type: cell-based, Enterococcus faecium; details: E. faecium BM 4147, multi-resistant strain
Text: (§1) Gram-negative bacterial strains, Escherichia coli ATCC 8739, Escherichia coli ATCC 35218, Escherichia coli ML 35p, Escherichia coli K12, Pseudomonas aeruginosa ATCC 27853, and Gram-positive bacterial strains, Enterococcus faecalis ATCC29212, Kocuria rhizophila ATCC 9341, Staphylococcus aureus ATCC 6538, Staphylococcus aureus ATCC 29213, Staphylococcus aureus ST 1065, Staphylococcus epidermidis BM 3302, and Bacillus subtilis subsp. subtilis CIP 52.65, as well as two multiresistant strains (Staphylococcus aureus DAR 5829 (http://www.ncbi.nlm.nih.gov/bioproject/228435) and Enterococcus faecium BM 4147 [20] were cultured as described previously. The minimal inhibitory concentration (MIC) of the peptides was determined by the microtiter broth dilution method. Overnight precultures were subcultured in Luria Bertani (LB) medium at 37°C with vigorous shaking until mid-log phase (~2h) and diluted to 10^7 cfu/mL. Peptide solutions were prepared at different concentrations (from 2 to 500 μM) by successive 2-fold dilutions in water from 1 mM stock solutions. In each row of a 96-well nonbinding surface plate, 90 μL of bacteria were incubated with 10 μL of peptide solutions for 18 h at 37°C. The final peptide concentrations ranged from 0.2 to 100 μM. Cell growth was evaluated by visual inspection and absorbance at 600 nm to determine the lowest concentration of peptide that prevented cell growth. Wells were either opaque, indicating stationary phase growth, or transparent indicating no growth. The lowest concentration showing no visible growth was considered as the MIC. After measurement of the MIC, the bactericidal activity was determined by the addition of resazurin dye (30 μL, 0.01% w/v) to each well [22]. The plates were further incubated at 37°C for 18 h. Wells in which the dye turned pink indicated live bacteria, whereas wells in which the dye remained blue indicated dead bacteria. The minimal bactericidal concentration (MBC) is the lowest concentration with blue coloration (99.9% of bacteria were killed). Three to five independent assays were performed in triplicate. Positive controls correspond to medium plus 0.2% formaldehyde and negative controls to medium without peptide.

S. aureus ATCC 29213 = assay type: cell-based, Staphylococcus aureus
Text: as §1

S. aureus ST 1065 = assay type: cell-based, Staphylococcus aureus
Text: as §1

S. aureus ATCC 6538 = assay type: cell-based, Staphylococcus aureus
Text: as §1

S. aureus DAR 5829 = assay type: cell-based, Staphylococcus aureus; details: S. aureus DAR 5829, multi-resistant strain
Text: as §1

K. rhizophila ATCC 9341 = assay type: cell-based, Kocuria rhizophila
Text: as §1

[1] = Circular dichroism, helical content with lipid vesicles; assay type: physicochemical; details: CD, 10 mM phosphate buffer pH 7.4, 20 μM peptide, peptide/lipid molar ratio 1/50
Text: Lipid vesicles were formed using bacterial lipids extracted as described above or commercially available synthetic lipids. The lipids, 1-palmitoyl-2-oleoyl-sn-glycero-3-phosphocholine (POPC), 1-palmitoyl-2-oleoyl-sn-glycero-3-phospho-(1'-rac-glycerol) (POPG), 1,2-dimyristoyl-sn-glycero-3-phosphoglycerol (DMPG), 1.2-dioleyl-sn-glycero-3-phosphoglycerol (DOPG), and 1',3'-bis[1,2-dioleoyl-sn-glycero-3-phospho]-sn-glycerol (CL), were obtained from Avanti Polar Lipids, Inc (Alabaster, AL) and used without further purification. Desired mixtures of phospholipids were first dried in glass tubes under nitrogen and then maintained under a reduced pressure for at least 60 min. Lipid films were subsequently hydrated in PBS to yield a lipid concentration of 10 mg.mL^-1 for tryptophan fluorescence experiments, 1 mg.mL^-1 for DSC experiments, and in PB at 1 mM for CD experiments. The resulting dispersions of large multilamellar vesicles (MLVs) were subjected to 3 to 5 freeze-thaw cycles and then extruded 15 times through polycarbonate membranes (100 nm pore size, Whatman, Maidstone, UK) on an Avanti mini-extruder apparatus (Avanti Polar Lipids, Inc., Alabaster, AL) to generate large unilamellar vesicles (LUVs). Lipid vesicles were used either alone, or in combination with S. aureus peptidoglycan (PGN) (Sigma).
The CD spectra of the peptides were recorded as previously described. […]

S. epidermidis BM3302 = assay type: cell-based, Staphylococcus epidermidis
Text: as §1

A549 cells = test: Cytotoxicity, trypan blue exclusion; assay type: cell-based; details: A549 human lung carcinoma cells, 2-hour incubation at 37°C, 5% CO2, concentrations as high as 100 μM; 3 independent experiments in triplicate
Description: A549 cells (ATCC CCL-185), a human lung carcinoma cell line, were cultivated at 37°C, humid atmosphere and 5% CO2, in Petri dishes with DMEM Advanced medium (Gibco) supplemented with 5% of fetal bovine serum (FBS), 2 mM of glutamine, 100 U of penicillin and 50 μg/mL of streptomycin (Gibco). When the cells reached 80% confluence, the medium was discarded and the cells were washed with PBS 1×, before being treated with Trypsin 1× for 2 minutes to detach them form the culture dish. Cells were then resuspended in DMEM medium, seeded in a 48-well culture plate (500 000 cells/well), and either form of DMS-DA6 solubilized in PBS 1× was added and incubated for 2 hours at 37°C, 5% CO2. DMSO 30% was used as a positive control to induce cell death, and DMEM medium as negative control. After incubation, cell viability was assessed by trypan blue exclusion.

E. coli K12 = assay type: cell-based, Escherichia coli; details: LB, 10^7 cfu/mL, 18 h at 37°C, peptide 0.2-100 μM, averaged over >=3 independent experiments in triplicate
Text: as §1

E. coli ATCC 35218 = assay type: cell-based, Escherichia coli; details: LB, 10^7 cfu/mL, 18 h at 37°C, peptide 0.2-100 μM, averaged over >=3 independent experiments in triplicate
Text: as §1

E. coli ML 35p = assay type: cell-based, Escherichia coli; details: LB, 10^7 cfu/mL, 18 h at 37°C, peptide 0.2-100 μM, averaged over >=3 independent experiments in triplicate
Text: as §1

E. coli ATCC 8739 = assay type: cell-based, Escherichia coli
Text: as §1

E. faecalis ATCC 29212 = assay type: cell-based, Enterococcus faecalis
Text: as §1

B. subtilis CIP 52.65 = assay type: cell-based, Bacillus subtilis subsp. subtilis
Text: as §1

[2] = tested on: Ps. aeruginosa ATCC 27853; assay type: cell-based, Pseudomonas aeruginosa; details: LB, 10^7 cfu/mL, 18 h at 37°C, peptide 0.2-100 μM, averaged over >=3 independent experiments in triplicate
Text: as §1, with “Wells were either opaque, indicating stationary phase growth, or transparent indicating no growth. The lowest concentration showing no visible growth was considered as the MIC. After measurement of the MIC, the bactericidal activity was determined by the addition of resazurin dye (30 μL, 0.01% w/v) to each well [22]. The plates were further incubated at 37°C for 18 h. Wells in which the dye turned pink indicated live bacteria, whereas wells in which the dye remained blue indicated dead bacteria. The minimal bactericidal concentration (MBC) is the lowest concentration with blue coloration (99.9% of bacteria were killed). Three to five independent assays were performed in triplicate. Positive controls correspond to medium plus 0.2% formaldehyde and negative controls to medium without peptide.” left out

S. aureus ST1065 = test: Bacterial membrane permeabilization (ONPG hydrolysis); assay type: cell-based, Staphylococcus aureus; details: S. aureus ST 1065, 2.5 mM ONPG, absorbance at 420 nm; two independent experiments in triplicate
Description: Membrane permeabilization was assessed by monitoring the hydrolysis of ortho-nitrophenyl β-D-galactopyranoside (ONPG) by the β-galactosidase enzyme, using the S. aureus ST1065 strain, specifically designed for membrane permeabilization assays, through detection of cytoplasmic β-galactosidase activity leakage. Bacteria were grown in LB to an absorbance of 0.5 at 600 nm, pelleted by centrifugation, and the pellets were washed twice with PBS. Pellets were then resuspended in 10% LB in PBS to an absorbance of 0.5 at 600 nm. Aliquots (15 μL) of bacterial suspension were mixed with 2.5 mM ONPG and incubated with various concentrations of peptide in a 96-well plate. The hydrolysis of ONPG was monitored by measuring the absorbance at 420 nm of released o-nitrophenol with a Fluostar Galaxy microplate reader (BMG LabTech, France).

[3] = LB, 10^7 cfu/mL, 18 h at 37°C, averaged over >=3 independent experiments in triplicate
[4] = resazurin dye added after MIC, further 18 h at 37°C, 99.9% killed, averaged over >=3 experiments in triplicate

For `CC[C@H](C)[C@H](NC(=O)CNC(=O)[C@H](Cc1c[nH]c2ccccc12)NC(=O)[C@@H](NC(=O)CN)C(C)C)C(=O)N[C@@H](C)C(=O)N[C@@H](CCCCN)C(=O)N[C@H](C(=O)N[C@@H](C)C(=O)NCC(=O)N[C@@H](CCCCN)C(=O)N[C@H](C(=O)N[C@@H](CC(C)C)C(=O)NCC(=O)N[C@@H](CC(N)=O)C(=O)N[C@H](C(=O)N[C@@H](CC(C)C)C(=O)N1CCC[C@H]1C(=O)N[C@@H](Cc1c[nH]cn1)C(=O)N[C@H](C(=O)N[C@@H](Cc1ccccc1)C(=O)N[C@@H](CO)C(=O)N[C@@H](CO)C(=O)N[C@@H](CC(N)=O)C(=O)N[C@@H](CCC(N)=O)C(=O)N[C@@H](CO)C(N)=O)C(C)C)[C@@H](C)CC)C(C)C)[C@@H](C)CC` [DMS-DA6-NH2] (H-GVWGIAKIAGKVLGNILPHVFSSNQS-NH2), the MIC (E. faecium BM 4147; [3]) was 25 µM (≈ 67.3 µg/mL), the MBC (E. faecium BM 4147; [4]) was 25 µM (≈ 67.3 µg/mL) and the MIC (S. aureus ATCC 29213; [3]) was 3.12 µM (≈ 8.4 µg/mL). The MBC (S. aureus ATCC 29213; [4]) was 6.25 µM (≈ 16.8 µg/mL), the MIC (S. aureus ST 1065; [3]) was 12.5 µM (≈ 33.7 µg/mL) and the MBC (S. aureus ST 1065; [4]) was 12.5 µM (≈ 33.7 µg/mL). The MIC (S. aureus ATCC 6538; [3]) was 6.25 µM (≈ 16.8 µg/mL), the MBC (S. aureus ATCC 6538; [4]) was 6.25 µM (≈ 16.8 µg/mL) and the MIC (S. aureus DAR 5829; [3]) was 25 µM (≈ 67.3 µg/mL). The MBC (S. aureus DAR 5829; [4]) was 50 µM (≈ 135 µg/mL), the MIC (K. rhizophila ATCC 9341; [3]) was 3.12 µM (≈ 8.4 µg/mL) and the MBC (K. rhizophila ATCC 9341; [4]) was 3.12 µM (≈ 8.4 µg/mL). The α-helix conformation ([1]; POPG LUVs) was “about 80%”, the α-helix conformation ([1]; pure zwitterionic POPC LUVs) was 40% and the MIC (S. epidermidis BM3302; [3]) was 12.5 µM (≈ 33.7 µg/mL). For the same compound, the MBC (S. epidermidis BM3302; [4]) was 12.5 µM (≈ 33.7 µg/mL), the “death of A549 cells (trypan blue exclusion)” value (A549 cells) was “neither DMS-DA6-OH (net charge +2) nor DMS-DA6-NH2 (net charge +3) resulted in the death” and the MIC (E. coli K12) was >100 µM. The MIC (E. coli ATCC 35218) was >100 µM, the MIC (E. coli ML 35p) was >100 µM and the MIC (E. coli ATCC 8739; [3]) was 25 µM (≈ 67.3 µg/mL). It also gave an MBC (E. coli ATCC 8739; [4]) of 50 µM (≈ 135 µg/mL), an MIC (E. faecalis ATCC 29212; [3]) of 50 µM (≈ 135 µg/mL) and an MBC (E. faecalis ATCC 29212; [4]) of 50 µM (≈ 135 µg/mL). For the same compound, the MIC (B. subtilis CIP 52.65; [3]) was 6.25 µM (≈ 16.8 µg/mL), the MBC (B. subtilis CIP 52.65; [4]) was 6.25 µM (≈ 16.8 µg/mL) and the intact peptide remaining was > 90%. For the same compound, the MIC [2] was >100 µM and the “peptide concentration at which the maximal absorption intensity (ONPG hydrolysis) after 240 minutes was reached” value (S. aureus ST1065) was 12.5 µM.
